From patent publication US12503471B2, “Triazatricycle compounds for the treatment of autoimmune disease” (Hoffmann-La Roche Inc., priority 2019, dated 2025)
pIC50: −log10 of the molar value.

Target: T1, human TLR8 (Homo sapiens, UniProt Q9NR97)
T1 construct: host or cells: HEK293 (HEK-Blue hTLR8)
T1 sequence (Q9NR97 27-1041): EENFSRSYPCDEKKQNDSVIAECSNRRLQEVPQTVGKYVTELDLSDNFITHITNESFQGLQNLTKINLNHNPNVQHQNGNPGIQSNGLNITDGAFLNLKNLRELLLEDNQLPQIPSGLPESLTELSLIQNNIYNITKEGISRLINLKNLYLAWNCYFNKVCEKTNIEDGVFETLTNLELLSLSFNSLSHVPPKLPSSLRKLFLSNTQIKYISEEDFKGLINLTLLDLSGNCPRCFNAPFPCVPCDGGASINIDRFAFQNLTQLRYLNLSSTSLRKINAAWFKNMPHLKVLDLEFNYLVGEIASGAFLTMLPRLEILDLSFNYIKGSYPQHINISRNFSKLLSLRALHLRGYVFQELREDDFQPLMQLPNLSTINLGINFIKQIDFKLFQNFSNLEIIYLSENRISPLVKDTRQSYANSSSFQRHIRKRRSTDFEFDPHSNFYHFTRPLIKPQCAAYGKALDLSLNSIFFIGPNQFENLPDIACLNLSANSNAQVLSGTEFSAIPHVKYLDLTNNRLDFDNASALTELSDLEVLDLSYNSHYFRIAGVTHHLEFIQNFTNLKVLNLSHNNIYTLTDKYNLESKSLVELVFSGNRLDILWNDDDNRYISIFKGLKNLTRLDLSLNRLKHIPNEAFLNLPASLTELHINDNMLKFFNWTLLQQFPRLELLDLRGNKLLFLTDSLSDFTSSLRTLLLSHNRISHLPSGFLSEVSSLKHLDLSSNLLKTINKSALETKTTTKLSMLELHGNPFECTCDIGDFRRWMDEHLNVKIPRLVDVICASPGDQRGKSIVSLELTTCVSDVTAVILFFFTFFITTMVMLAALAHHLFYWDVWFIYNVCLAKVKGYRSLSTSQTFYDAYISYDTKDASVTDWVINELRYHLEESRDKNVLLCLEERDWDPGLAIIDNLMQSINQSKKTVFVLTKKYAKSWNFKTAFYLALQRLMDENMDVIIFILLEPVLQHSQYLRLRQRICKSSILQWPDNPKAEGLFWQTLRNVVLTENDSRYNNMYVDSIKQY
Assay: HEK293-Blue-hTLR-8 cells assay
Assay type: cell-based
Settings: HEK293-Blue-hTLR8 cells, R848 stimulation, 20 hrs, SEAP reporter; read-out: HEK/hTLR8 IC50
From the text: HEK293-Blue-hTLR-8 Cells Assay:
A stable HEK293-Blue-hTLR-8 cell line was purchased from InvivoGen (Cat. #: hkb-htlr8, San Diego, Calif., USA). These cells were originally designed for studying the stimulation of human TLR8 by monitoring the activation of NF-κB. A SEAP (secreted embryonic alkaline phosphatase) reporter gene was placed under the control of the IFN-β minimal promoter fused to five NF-κB and AP-1-binding sites. The SEAP was induced by activating NF-κB and AP-1 via stimulating HEK-Blue hTLR8 cells with TLR8 ligands. Therefore the reporter expression was declined by TLR8 antagonist under the stimulation of a ligand, such as R848, for incubation of 20 hrs. The cell culture supernatant SEAP reporter activity was determined using QUANTI-Blue™ kit (Cat. #: rep-qbl, Invivogen, San Diego, Ca, USA) at a wavelength of 640 nm, a detection medium that turns purple or blue in the presence of alkaline phosphatase.
HEK293-Blue-hTLR8 cells were incubated at a density of 250,000˜450,000 cells/mL in a volume of 170 μL in a 96-well plate in Dulbecco's Modified Eagle's medium (DMEM) containing 4.5 g/L glucose, 50 U/mL penicillin, […], […], 2 mM L-glutamine, 10% (v/v) heat-inactivated fetal bovine serum with addition of 20 μL test compound in a serial dilution in the presence of final DMSO at 1% and 10 μL of 60 uM R848 in above DMEM, perform incubation under 37° C. in a CO2 incubator for 20 hrs. Then 20 μL of the supernatant from each well was incubated with 180 μL Quanti-blue substrate solution at 37° C. for 2 hrs and the absorbance was read at 620-655 nm using a spectrophotometer. The signaling pathway that TLR8 activation leads to downstream NF-κB activation has been widely accepted, and therefore similar reporter assay was modified for evaluating TLR8 antagonist.

pIC50 | SMILES
8.44 | C[C@@H]1CN(c2ccc(C#N)n3nccc23)C[C@@H]2c3ccc(N4C[C@@H]5C[C@H]4CN5)nc3CN12 [Example 21, 4-[(2S,6R)-11-[(1S,4S)-2,5-diazabicyclo[2.2.1]heptan-2-yl]-6-methyl-4,7,10-triazatricyclo[7.4.0.02,7]trideca-1(9),10,12-trien-4-yl]pyrazolo[1,5-a]pyridine-7-carbonitrile]
> 9.52 | [2H]c1ccc2c(N3C[C@@H](C)N4Cc5nc(N6CC[C@H](N)[C@@H](OC)C6)ccc5[C@H]4C3)ccc(C#N)c2n1 [Example 12, 5-[(2S,6R)-11-[(3S,4S)-4-amino-3-methoxy-1-piperidyl]-6-methyl-4,7,10-triazatricyclo[7.4.0.02,7]trideca-1(9),10,12-trien-4-yl]-2-deuterio-quinoline-8-carbonitrile]
> 9.52 | [2H]c1ccc2c(N3C[C@@H](C)N4Cc5nc(N6CCC7(CC6)CNCCO7)ccc5[C@H]4C3)ccc(C#N)c2n1 [Example 18, 2-Deuterio-5-[(2S,6R)-6-methyl-11-(1-oxa-4,9-diazaspiro[5.5]undecan-9-yl)-4,7,10-triazatricyclo[7.4.0.02,7]trideca-1(9),10,12-trien-4-yl]quinoline-8-carbonitrile]
> 9.52 | [2H]c1ccc2c(N3C[C@@H](C)N4Cc5nc(O[C@H]6CCNC6)ccc5[C@H]4C3)ccc(C#N)c2n1 [Example 25, 2-Deuterio-5-[(2S,6R)-6-methyl-11-[(3S)-pyrrolidin-3-yl]oxy-4,7,10-triazatricyclo[7.4.0.02,7]trideca-1(9),10,12-trien-4-yl]quinoline-8-carbonitrile]
